Here are results for three molecules from US20200261443A1, “Use of Anti-Ischemic Compounds in Treating Acute-On-Chronic Liver Failure” (Martin Pharmaceuticals Inc., priority 2019, published 2020).

“Also recorded” adds a separate entry of the source. Read-outs that look alike come from different tables or passages of the source.

Data set [1] can be described thus: TMZ study in suspected ACLF: white blood cell count, platelet count, creatinine clearance. Format: in vivo, human. The settings on record: throughout the study, TMZ versus control groups; dihydrochloride. From the text: A three-arm, randomized, controlled study enrolled 133 subjects presenting with acute decompensation of cirrhosis and suspected ACLF. Included patients presented with a prothrombin time extended by 4-6 seconds or an international normalized ratio of ≥1.5 or any degree of hepatic encephalopathy as assessed by the West Haven criteria.
In view of the overall disturbed immunlological state and the coagulopathy that is common in ACLF, it is important to asertain whether trimetazidine poses an additional risk to ACLF patients in this regard.

The subject of data set [2] is carbon tetrachloride-induced fulminant liver failure. The settings on record: animal model; cited from earlier work.
For data set [3] the following is noted: cited from earlier work.
The test system of data set [4] is patients with acute decompensation of cirrhosis and suspected ACLF. As to the kind of experiment: Three-arm, randomized, controlled TMZ study in suspected ACLF: mortality. The settings on record: for Treatment effect on Day 90 mortality: dihydrochloride. Format: in vivo, human. From the text: A three-arm, randomized, controlled study enrolled 133 subjects presenting with acute decompensation of cirrhosis and suspected ACLF.
Patient were divided into two groups by Child Pugh score: Class A or B (<10) and Class C (≥10).
[…] 1. The ACLF3 group was not analyzed because of the small numbers.

The next data set relates to liver lipid homeostasis. The settings on record: human normal obese subjects; cited from earlier work.
Data set [5] has as its system non-alcoholic steatohepatitis. The settings on record: human population; cited from earlier work.
The mark [6] stands for this setting: Day 30, CP < 10, TMZ arm = TMZ + LOLA + SoC, LOLA arm = LOLA + SoC.

With `COc1ccc(CN2CCNCC2)c(OC)c1OC.Cl.Cl` [TMZ, 1-(2,3,4-trimethoxybenzyl)piperazine dihydrochloride], in data set [1], the “Estimated creatinine clearance rate” value is “does not Affect; also recorded: no difference between the TMZ and control groups”. Further, the “Platelet count / thrombocytopenia” value in data set [1] was “does not Affect; also recorded: not causing thrombocytopenia; also recorded: no difference between the TMZ and control groups”. For the same molecule, the “White blood cell levels” value in data set [1] was “does not Affect; also recorded: no meaningful difference between the TMZ and control groups”. In addition, in data set [2], the “Effectiveness in fulminant liver failure” value is “effectiveness”. Moreover, the “Solubility in water / aqueous solution” value is on record as “highly soluble in water” in data set [3] (dihydrochloride) and “very soluble” in data set [3] (listed as dihydrochloride form of TMZ, dihydrochloride). Also, the “Treatment effect on Day 90 mortality” value was “drug effect was visible; also recorded: Positive results” in data set [4] (ACLF1 population); “drug effect was visible; also recorded: Positive results” in data set [4] (ACLF2 population); “highly statistically significant difference; also recorded: robust effect” in data set [4] (ACLF population by EASL-CLIF criteria, worst case imputation); “not even a trend towards an effect; also recorded: ineffective” in data set [4] (AD population by EASL-CLIF criteria, worst case imputation). Also, the “30- and 90-day mortality” value in data set [4] (Child Pugh Class C (≥10) subjects) was “substantial and statistically significant reductions”. For the same molecule, the “Alive (number of patients)” value is 9 in data set [4] (setting [6]); 20 in data set [4] (Day 30, CP ≥ 10); 7 in data set [4] (Day 90, CP < 10); 16 in data set [4] (Day 90, CP ≥ 10). The “Dead (number of patients)” value in data set [4] (setting [6]) worked out at 2; in data set [4] (Day 30, CP ≥ 10), 5; in data set [4] (Day 90, CP < 10), 4; in data set [4] (Day 90, CP ≥ 10) it was 9. Further, the “Dead (percent of patients)” value in data set [4] (setting [6]) was 18%; in data set [4] (Day 30, CP ≥ 10), 20%; in data set [4] (Day 90, CP < 10) it was 36%; in data set [4] (Day 90, CP ≥ 10), 36%. Further, the “Effect on liver lipid homeostasis” value in the data set with liver lipid homeostasis is recorded as “improve liver lipid homeostasis”. The “Effect on parameters associated with non-alcoholic steatohepatitis” value in data set [5] is recorded as “improve certain parameters associated with non-alcoholic steatohepatitis”.

Consider `COc1ccc(CN2CCNCC2)c(OC)c1OC` [neutral form of TMZ, 1-(2,3,4-trimethoxybenzyl)piperazine], for which, in data set [3], the “Solubility in organic environments” value was “soluble in certain organic environments” and the “Solubility in water / aqueous solution” value was “only sparingly soluble in aqueous solution”.

For the molecule L-ornithine-L-aspartate [LOLA], the “Alive (number of patients)” value came out at 10 in data set [4] (setting [6]); 16 in data set [4] (Day 30, CP ≥ 10); 6 in data set [4] (Day 90, CP < 10); 6 in data set [4] (Day 90, CP ≥ 10).
